Experiments:
[1] = molecular target: T1, BflsABN43A (Bifidobacterium longum, UniProt A0A087B7X1); assay: TLC of hydrolysis products; type: biochemical; conditions: 0.5% substrate, optimal conditions (pH 5.0, 45 °C)
T1 construct: gene BLSS_1421; 531 aa (56 kDa) printed; 35-residue signal peptide removed (primer deltaS; starts M-SSNAKN by primer), C-terminal His6, E. coli; caution: same WP id also printed for BflsABF43A (710 aa)
T1 sequence (A0A087B7X1 36-531): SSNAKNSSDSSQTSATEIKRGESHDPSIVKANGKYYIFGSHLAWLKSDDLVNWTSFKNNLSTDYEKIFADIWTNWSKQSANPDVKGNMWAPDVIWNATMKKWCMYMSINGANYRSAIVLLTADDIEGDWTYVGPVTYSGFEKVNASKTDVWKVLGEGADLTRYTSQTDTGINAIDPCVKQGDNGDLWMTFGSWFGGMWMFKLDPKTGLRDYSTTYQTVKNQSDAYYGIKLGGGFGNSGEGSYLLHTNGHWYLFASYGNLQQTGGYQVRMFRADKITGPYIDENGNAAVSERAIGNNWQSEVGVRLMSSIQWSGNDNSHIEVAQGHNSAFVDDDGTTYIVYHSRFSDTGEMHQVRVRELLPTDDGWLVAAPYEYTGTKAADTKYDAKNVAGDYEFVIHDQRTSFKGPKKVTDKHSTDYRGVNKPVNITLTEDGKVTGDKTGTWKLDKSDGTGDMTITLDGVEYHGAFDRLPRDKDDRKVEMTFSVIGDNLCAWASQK

[2] = molecular target: T2, BflsABN43B (Bifidobacterium longum, UniProt A0A087B7X0); assay: TLC of hydrolysis products; type: biochemical; conditions: 0.5% substrate, optimal conditions (pH 6.0, 50 °C)
T2 construct: gene BLSS_1420; full length, 581 aa, 65 kDa, C-terminal His6, E. coli BL21(DE3); starts MTATTS by primer
T2 sequence (A0A087B7X0 1-581): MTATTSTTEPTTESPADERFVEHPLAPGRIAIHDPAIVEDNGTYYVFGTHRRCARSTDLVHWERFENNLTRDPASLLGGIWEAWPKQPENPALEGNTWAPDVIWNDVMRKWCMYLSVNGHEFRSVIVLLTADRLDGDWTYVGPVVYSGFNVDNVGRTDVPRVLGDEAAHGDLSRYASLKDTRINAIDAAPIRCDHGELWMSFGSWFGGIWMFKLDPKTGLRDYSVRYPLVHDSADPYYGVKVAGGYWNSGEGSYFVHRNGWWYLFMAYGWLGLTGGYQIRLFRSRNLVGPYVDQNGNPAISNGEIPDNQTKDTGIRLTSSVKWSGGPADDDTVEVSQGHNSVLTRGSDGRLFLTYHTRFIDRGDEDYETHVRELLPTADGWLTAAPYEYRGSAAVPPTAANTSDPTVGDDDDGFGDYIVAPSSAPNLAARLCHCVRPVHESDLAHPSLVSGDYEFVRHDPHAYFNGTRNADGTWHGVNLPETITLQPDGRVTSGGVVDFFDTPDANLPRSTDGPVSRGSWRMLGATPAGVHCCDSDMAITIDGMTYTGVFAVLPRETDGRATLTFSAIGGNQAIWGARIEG

OC[C@@H]1O[C@@H](OC[C@@H]2O[C@@H](OC[C@@H]3O[C@@H](OC[C@@H]4O[C@@H](OC[C@@H]5O[C@@H](OC[C@@H]6OC(O)[C@H](O)[C@H]6O)[C@H](O)[C@H]5O)[C@H](O)[C@H]4O)[C@H](O)[C@H]3O)[C@H](O)[C@H]2O)[C@H](O)[C@H]1O (some centres unmarked) [A6, arabinohexaose]
TLC of hydrolysis products [1]: both ABNs demonstrated detectable hydrolytic activities to produce A2 and arabinotetraose (A4)
TLC of hydrolysis products [2]: both ABNs demonstrated detectable hydrolytic activities to produce A2 and arabinotetraose (A4)

— PMC10970622, “Functional Characterization of Endo- and Exo-Hydrolase Genes in Arabinan Degradation Gene Cluster of Bifidobacterium longum subsp. suis” (International Journal of Molecular Sciences, 2024)
